From patent publication US20240424010A1, “NICOTINAMIDE RIBOSIDE TRIOLEATES CHLORIDE, COMPOSITIONS CONTAINING THIS COMPOUND, AND METHODS OF MAKING AND USING THIS COMPOUND” (SOCIETE DES PRODUITS NESTLE S.A., priority 2021, published 2024)

Experiments:
[1] = Hydrolysis stability of NRTOCl emulsions and NRCl in water at room temperature for 42 days; assay type: physicochemical; details: room temperature, 42 days
Description: After each specific time of stability for NRTOCl and NRCl emulsions, 1.5 mL of each emulsion was centrifuged (14,000 rpm) for 20 minutes at room temperature. […] However, during this time of stability study, 52.0% NR was intact in water at room temperature. […] During this time, these emulsions were stable without visible phase separation. A little increase in the average size of the NRTO droplets occurred in these emulsions, so that in Cas emulsion, the average size increased from 1020 nm to 1281 nm, and in Cas-Lec emulsion, this parameter increased from 1012 nm to 1106 nm.

[2] = Hydrolysis stability of NRTOCl and NRCl oil-in-water emulsions and NRCl in water at 35° C. for 26 days; assay type: physicochemical
Description: The emulsion was prepared using 480 mg of oil stock containing 15 wt. % NRTOCl in canola oil and an aqueous phase (14.52 g) of Na-caseinate (2 wt. %), KCl (0.3 wt. %), NaCl (0.1 wt. %), CaCl2 (0.2 wt. %) and NaN3 (0.01 wt. %).
The emulsion was-prepared using 480 mg of oil stock containing 15 wt. % NRTOCl in canola oil and 0.025 g of lecithin. The aqueous phase (14.5 g) contained Na-caseinate (2 wt. %), KC (0.3 wt. %), NaCl (0.1 wt. %), CaCl2 (0.2 wt. %) and NaN3 (0.01 wt. %).
The emulsion was-prepared using 480 mg of oil stock containing 15 wt. % NRTOCl in canola oil and an aqueous phase (14.52 g) of polysorbate 80 (Tween 80) (2 wt. %).
The emulsion was prepared using around 480 mg of canola oil in an aqueous phase (14.52 g) of NRCl (19 mg), Na-caseinate (2 wt. %), KCl (0.3 wt. %), NaCl (0.1 wt. %), CaCl2 (0.2 wt. %) and NaN3 (0.01 wt. %).
After each specific time of stability for NRTOCl and NRCl emulsions, 1.5 mL of each emulsion was centrifuged (14,000 rpm) for 20 minutes at room temperature.
Since NRTOCl is a very hydrophobic compound, to evaluate its stability in oil phase, an emulsion system was used to study the stability of NRTOCl as a function of time. For this purpose, a 15% w/w solution of NRTOCl in canola oil was used for making different emulsions with Na-caseinate, Tween 80 and lecithin as the emulsifiers (2 wt. %) at room temperature.
When Na-caseinate was used as an emulsifier, the aqueous phase must be a solution of NaCl (0.1 wt. %), CaCl2 (0.2 wt. %) and KCl (0.3 wt. %) because caseinate anion with minus charge and NRTO with positive charge immediately aggregated in DI water. The total oil phase in these emulsions were 3.2 wt. %, and the concentration of NRTOCl in total volume of each emulsion (15 mL) was 4.4 mM. In the emulsions that used Na-caseinate as an emulsifier, NaN3 (0.01 wt. %) was added to prevent the growth of bacteria. When the NRTOCl emulsion was made by 2 wt. % Na-caseinate, its average size and zeta potential in this emulsion (Cas emulsion) were 1020 nm and −14.4 mV respectively.
After making NRTOCl emulsions, a NRCl in canola oil-in-water emulsion was attempted as a control experiment using 3.2% canola oil. The aqueous phase was a solution of Na-caseinate (2 wt. %), NaCl (0.1 wt. %), CaCl2 (0.2 wt. %), KCl (0.3 wt. %) and NaN3 (0.01 wt. %). The concentration of NRCl in total volume (15 mL) of this emulsion was 4.4 mM. Moreover, 15 mL of NRCl solution in DI water was prepared with 4.4 mM concentration as the other control experiment. After preparing three NRTOCl emulsions and two control experiment samples, hydrolysis stability of each sample was studied at 35° C. for 26 days (FIG. 14). The rate of degradation was measured by determination of the released nicotinamide from each sample. […]

[3] = tested on: NAD+ level in mammalian cell; details: cited from earlier work
[4] = Stability of NRTOCl and NRCl in DI water at 35° C. for 28 days (released nicotinamide by HPLC); assay type: physicochemical; details: DI water, 1000 ppm, 28 days
Description: Although NRTOCl is a quaternary ammonium salt, it was not dissolved in water due to the existence of three groups of oleate fatty ester in its structure. Therefore, for the stability study of NRTOCl, this compound was dispersed in DI water using 1% ethanol as a cosolvent. For this purpose, 15 mg of NRTOCl was dissolved in 0.15 ml of ethanol (1%) and then 14.85 ml of DI water was added to the mixture and gently shaken. […] Although the average size of NRTOCl in this sample was 192 nm, the images of TEM disclosed smaller particles with around 50 nm and oval and spherical shapes with aspect ratio close to unity (FIGS. 10A-10C). In the nanoparticles, the NRTOCl structures are stacked on top of each other layer-by-layer. The highly positive charge of NRTO makes the nanoparticles stable in the aqueous phase. After dispersion of NRTOCl in DI water, NRCl was dissolved in DI water, and the stability of these samples were studied at 35° C. for 28 days (FIG. 11). The concentration of each sample was 1000 ppm. As during the hydrolysis reaction of NRTO and NR, both of these compounds released nicotinamide (FIG. 12), and by measuring the released amount of nicotinamide in each sample with HPLC, the remaining amounts of NRTO and NR in each sample were calculated. During this study, any release of NR from NRTO sample was not detected. It signifies that the heavy ester groups in NRTO sample are not hydrolyzed during the time of stability study. Because this study was performed in DI water and the conditions were mild, the NRTO was hydrolyzed from its N-glycoside bond.

[5] = NRTBCl stability measurement in MQ water at 35° C.; assay type: physicochemical; details: 6 days, 1000 ppm, preliminary
Description: The stability study of the NRTBCl was performed by dissolving NRTB in MQ water and keeping at 35° C. for 6 days. The concentration of each sample was 1000 ppm. […] The reason for increasing the intensity of the peak at 33 min (flow rate: 0.75 mL/min), is that the byproduct of degradation is nicotinamide (NA), which has the retention time of 33 min (exactly as NRTBCl).

[6] = Solubility study of NRTBCl in long and medium chain triglycerides and in water at different pH; assay type: physicochemical
Description: To study the solubility of NRTBCl in long chain triglycerides, we tried to dissolve this compound in olive oil and corn oil. For this purpose, 15 mg of NRTBCl was added to 15 ml of olive oil and vigorously shaked with vortex for 10 minutes at room temperature. […] This procedure was repeated by using corn oil instead of olive oil and the obtained results disclosed that NRTB was insoluble in corn oil. To study the solubility of NRTBCl in medium chain triglycerides, we tried to dissolve this compound in coconut oil. For this purpose, 15 mg of NRTBCl was added to 15 ml of coconut oil and vigorously shaked with vortex for 10 minutes at room temperature. […] To study the solubility of NRTB in water, three aqueous solutions of NRTBCl were prepared with 10000 ppm concentration at pH 5, 7, and 9.

[7] = 15 mg in 15 ml, vortex 10 minutes, room temperature

NR hydrolyzed after 42 days [1]	NR intact in water after 42 days ([1]; water)	solubility in the oil phase of the emulsion [2]	remaining amount after 28 days [4]	hydrolysis stability in MQ water [5]	solubility (general statement) [6]	solubility in coconut oil [6, 7]	solubility in corn oil [6, 7]	solubility in olive oil [6, 7]	solubility in water at different pH ([6]; 10000 ppm, pH 5, 7, and 9, zeta sizer)	Compound	boost of the level of NAD+ in mammalian cell [3]
48%	52.0%	cannot be dissolved	0.6%							NC(=O)c1ccc[n+]([C@@H]2O[C@H](CO)[C@@H](O)[C@H]2O)c1.[Cl-] [NRCl, Nicotinamide riboside chloride, reference compound]	up to two fold
				easily hydrolyzed	did not demonstrate good solubility	not dissolved	insoluble	not dissolved	completely be dissolved	CCCC(=O)OC[C@H]1O[C@@H]([n+]2cccc(C(N)=O)c2)[C@H](OC(=O)CCC)[C@@H]1OC(=O)CCC.[Cl-] [NRTBCl, nicotinamide riboside tributyrates chloride]	
